Measured values taken from US8524745B2 (Allergan, Inc., priority 2011, dated 2013).

Molecular target: T1, CCR2 (Homo sapiens, UniProt P41597)
T1 construct: expressed in transfected cells
Assay: CCR2 calcium activity assay on FLIPR Tetra in HEK-Gqi5 cells stably expressing CCR2
Type: cell-based

T1 sequence (P41597 whole entry, species assumed): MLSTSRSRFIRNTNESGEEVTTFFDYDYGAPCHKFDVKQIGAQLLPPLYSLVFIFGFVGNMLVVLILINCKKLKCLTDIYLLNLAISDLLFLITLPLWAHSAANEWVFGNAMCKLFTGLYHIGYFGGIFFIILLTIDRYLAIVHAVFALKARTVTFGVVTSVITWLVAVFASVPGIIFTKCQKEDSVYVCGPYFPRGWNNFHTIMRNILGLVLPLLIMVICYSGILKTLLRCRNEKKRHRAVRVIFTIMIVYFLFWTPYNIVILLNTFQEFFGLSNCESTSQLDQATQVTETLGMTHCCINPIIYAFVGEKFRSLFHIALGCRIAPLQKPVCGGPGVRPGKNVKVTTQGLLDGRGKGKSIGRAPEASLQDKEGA

Structure (SMILES)	CCR2 % ANTAG	IC50
COc1cccc(NS(=O)(=O)c2ccc3c(c2)c(=O)sn3C)c1 [N-(3-methoxyphenyl)-1-methyl-3-oxo-1,3-dihydro-2,1-benzisothiazole-5-sulfonamide]	84%	2450 nM
Cn1sc(=O)c2cc(S(=O)(=O)N[C@@H]3CCCC[C@H]3NS(=O)(=O)c3cccs3)ccc21 (relative stereo) [rel-1-methyl-3-oxo-N-{(1R,2R)-2-[(2-thienylsulfonyl)amino]cyclohexyl}-1,3-dihydro-2,1-benzisothiazole-5-sulfonamide]	79%	2370 nM
Cn1sc(=O)c2cc(S(=O)(=O)Nc3cccc(Cl)c3NS(=O)(=O)c3cccs3)ccc21 [N-{3-chloro-2-[(2-thienylsulfonyl)amino]phenyl}-1-methyl-3-oxo-1,3-dihydro-2,1-benzisothiazole-5-sulfonamide]	100%	823 nM
Cn1sc(=O)c2cc(S(=O)(=O)Nc3cccc4c3OCCO4)ccc21 [N-(2,3-dihydro-1,4-benzodioxin-5-yl)-1-methyl-3-oxo-1,3-dihydro-2,1-benzisothiazole-5-sulfonamide]	76%	1450 nM
Cn1sc(=O)c2cc(S(=O)(=O)Nc3cccnc3NS(=O)(=O)c3cccs3)ccc21 [1-methyl-3-oxo-N-{2-[(2-thienylsulfonyl)amino]pyridin-3-yl}-1,3-dihydro-2,1-benzisothiazole-5-sulfonamide]	83%	1910 nM
Cn1sc(=O)c2cc(S(=O)(=O)Nc3ccccc3NS(=O)(=O)c3ccccc3F)ccc21 [N-(2-{[(2-fluorophenyl)sulfonyl]amino}phenyl)-1-methyl-3-oxo-1,3-dihydro-2,1-benzisothiazole-5-sulfonamide]	103%	360 nM
Cn1sc(=O)c2cc(S(=O)(=O)Nc3cc(Cl)cc4c3OCCO4)ccc21 [N-(7-chloro-2,3-dihydro-1,4-benzodioxin-5-yl)-1-methyl-3-oxo-1,3-dihydro-2,1-benzisothiazole-5-sulfonamide]	63%	1670 nM
Cn1sc(=O)c2cc(S(=O)(=O)Nc3ccccc3NS(=O)(=O)c3cc(Cl)c(Cl)s3)ccc21 [N-(2-{[(4,5-dichloro-2-thienyl)sulfonyl]amino}phenyl)-1-methyl-3-oxo-1,3-dihydro-2,1-benzisothiazole-5-sulfonamide]	89%	359 nM

Second part, the compound after the results:

CCR2 % ANTAG	IC50	Structure (SMILES)
84%	1350 nM	Cn1sc(=O)c2cc(S(=O)(=O)Nc3ccccc3NS(=O)(=O)c3ccccc3Cl)ccc21 [N-(2-{[(2-chlorophenyl)sulfonyl]amino}phenyl)-1-methyl-3-oxo-1,3-dihydro-2,1-benzisothiazole-5-sulfonamide]
69%	678 nM	CN(C)c1cccc(S(=O)(=O)Nc2ccc(Cl)cc2NS(=O)(=O)c2ccc3c(c2)c(=O)sn3C)c1 [N-[5-chloro-2-({[3-(dimethylamino)phenyl]sulfonyl}amino)phenyl]-1-methyl-3-oxo-1,3-dihydro-2,1-benzisothiazole-5-sulfonamide]
104%	513 nM	Cn1sc(=O)c2cc(S(=O)(=O)Nc3ccccc3NS(=O)(=O)c3ccc(Cl)s3)ccc21 [N-(2-{[(5-chloro-2-thienyl)sulfonyl]amino}phenyl)-1-methyl-3-oxo-1,3-dihydro-2,1-benzisothiazole-5-sulfonamide]
24%	606 nM	Cn1sc(=O)c2cc(S(=O)(=O)Nc3ccccc3NS(=O)(=O)c3ccc(C(F)(F)F)cc3)ccc21 [1-methyl-3-oxo-N-[2-({[4-(trifluoromethyl)phenyl]sulfonyl}amino)phenyl]-1,3-dihydro-2,1-benzisothiazole-5-sulfonamide]
99%	563 nM	Cc1ccc(NS(=O)(=O)c2ccc3c(c2)c(=O)sn3C)c(NS(=O)(=O)c2cccs2)c1 [1-methyl-N-{4-methyl-2-[(2-thienylsulfonyl)amino]phenyl}-3-oxo-1,3-dihydro-2,1-benzisothiazole-5-sulfonamide]
84%	2790 nM	CCOc1ccc(S(=O)(=O)Nc2ccc(Cl)cc2NS(=O)(=O)c2ccc3c(c2)c(=O)sn3C)cc1 [N-(5-chloro-2-{[(4-ethoxyphenyl)sulfonyl]amino}phenyl)-1-methyl-3-oxo-1,3-dihydro-2,1-benzisothiazole-5-sulfonamide]
97%	1290 nM	Cn1sc(=O)c2cc(S(=O)(=O)Nc3cc(Cl)ccc3NS(=O)(=O)c3ccc(Cl)c(Cl)c3)ccc21 [N-(5-chloro-2-{[(3,4-dichlorophenyl)sulfonyl]amino}phenyl)-1-methyl-3-oxo-1,3-dihydro-2,1-benzisothiazole-5-sulfonamide]
92%	522 nM	Cn1sc(=O)c2cc(S(=O)(=O)Nc3ccccc3NS(=O)(=O)c3ccc(Cl)c(Cl)c3)ccc21 [N-(2-{[(3,4-dichlorophenyl)sulfonyl]amino}phenyl)-1-methyl-3-oxo-1,3-dihydro-2,1-benzisothiazole-5-sulfonamide]
